Measured values as given in PubChem BioAssay (NCI).
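Values below derive from 48-hour exposures of cells grown in 96-well plates, with endpoints linearly interpolated between the two concentrations bracketing the appropriate inhibition level. GI50: concentration for 50% inhibition of growth. TGI is the concentration that stops growth completely.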

Key:
Test in all cases: growth of human tumour cells (NCI), 48 h
[1] = tested on: A498 renal
[2] = tested on: SW-620 colon
[3] = tested on: DU-145 prostate
[4] = tested on: HL-60(TB) leukemia
[5] = tested on: UACC-257 melanoma
[6] = tested on: BT-549 breast
[7] = tested on: SK-MEL-28 melanoma
[8] = tested on: OVCAR-3 ovarian
[9] = tested on: HCT-15 colon
[10] = tested on: NCI-H522 lung
[11] = tested on: A549 NSCLC
[12] = tested on: HCC-2998 colon
[13] = tested on: CCRF-CEM leukemia
[14] = tested on: UACC-62 melanoma
[15] = tested on: OVCAR-8 ovarian
[16] = tested on: SK-MEL-5 melanoma
[17] = tested on: NCI-H460 lung
[18] = tested on: HCT-116 colon
[19] = tested on: HOP-62 NSCLC
[20] = tested on: CAKI-1 renal
[21] = tested on: IGROV1 ovarian
[22] = tested on: UO-31 renal
[23] = tested on: NCI/ADR-RES ovarian
[24] = tested on: ACHN renal
[25] = tested on: SF-295 CNS
[26] = tested on: RPMI-8226 leukemia
[27] = tested on: SNB-19 CNS
[28] = tested on: HS 578T breast
[29] = tested on: M14 melanoma
[30] = tested on: OVCAR-4 ovarian
[31] = tested on: SN12C renal
[32] = tested on: EKVX NSCLC
[33] = tested on: K-562 leukemia
[34] = tested on: OVCAR-5 ovarian
[35] = tested on: MALME-3M melanoma
[36] = tested on: SF-539 CNS
[37] = tested on: MDA-MB-231 breast
[38] = tested on: COLO 205 colon
[39] = tested on: SNB-75 CNS
[40] = tested on: MOLT-4 leukemia
[41] = tested on: RXF 393 renal
[42] = tested on: PC-3 prostate
[43] = tested on: 786-0 renal
[44] = tested on: MCF7 breast
[45] = tested on: SF-268 CNS
[46] = tested on: LOX IMVI melanoma
[47] = tested on: U251 CNS
[48] = tested on: NCI-H23 lung
[49] = tested on: SK-MEL-2 melanoma
[50] = tested on: HT29 colon
[51] = tested on: TK-10 renal
[52] = tested on: SK-OV-3 ovarian
[53] = tested on: HOP-92 NSCLC
[54] = tested on: SR leukemia
[55] = tested on: MDA-MB-435
[56] = tested on: KM12 colon
[57] = tested on: T-47D breast

`CCN(CC)Cc1ccc(Nc2nccc(-c3cnn4ncccc34)n2)cc1` was tested, and the GI50 [1] was 14.4 nM, the TGI [1] was 45.2 nM and the GI50 [2] was 13.6 nM. The TGI [2] was > 9070 nM, the GI50 [3] was 12 nM and the TGI [3] was > 8560 nM. The GI50 [4] was 6.87 nM, the TGI [4] was 22.9 nM and the GI50 [5] was 44.3 nM. The TGI [5] was 143 nM, the GI50 [6] was 37.7 nM and the TGI [6] was 139 nM. It also gave a GI50 [7] of 15 nM, a TGI [7] of 72.7 nM and a GI50 [8] of 11.5 nM. For the same compound, the TGI [8] was 106 nM, the GI50 [9] was 26.5 nM and the TGI [9] was > 25000 nM. It also gave a GI50 [10] of 49 nM, a TGI [10] of 116 nM and a GI50 [11] of 16.3 nM. For the same compound, the TGI [11] was > 25000 nM, the GI50 [12] was 33.3 nM and the TGI [12] was 129 nM. For the same compound, the GI50 [13] was 14.8 nM, the TGI [13] was > 25000 nM and the GI50 [14] was 18.8 nM. The TGI [14] was 69.4 nM, the GI50 [15] was 13.3 nM and the TGI [15] was > 25000 nM. It also gave a GI50 [16] of 41.9 nM, a TGI [16] of 215 nM and a GI50 [17] of 16.9 nM. For the same compound, the TGI [17] was 2990 nM, the GI50 [18] was 9.84 nM and the TGI [18] was > 25000 nM. The GI50 [19] was 14.5 nM, the TGI [19] was > 25000 nM and the GI50 [20] was 46.9 nM. The TGI [20] was > 9110 nM, the GI50 [21] was 27.5 nM and the TGI [21] was > 20800 nM. For the same compound, the GI50 [22] was 11.4 nM, the TGI [22] was > 8730 nM and the GI50 [23] was 32 nM. The TGI [23] was > 25000 nM, the GI50 [24] was 7.39 nM and the TGI [24] was > 25000 nM. For the same compound, the GI50 [25] was 31.1 nM, the TGI [25] was > 25000 nM and the GI50 [26] was 74.9 nM. The TGI [26] was 1760 nM, the GI50 [27] was 29.6 nM and the TGI [27] was > 25000 nM. For the same compound, the GI50 [28] was 16.4 nM, the TGI [28] was 117 nM and the GI50 [29] was 29.1 nM. It also gave a TGI [29] of 84.5 nM, a GI50 [30] of 76.6 nM and a TGI [30] of 9990 nM. For the same compound, the GI50 [31] was 14.1 nM, the TGI [31] was > 25000 nM and the GI50 [32] was 49.8 nM. For the same compound, the GI50 [33] was 68.2 nM, the TGI [33] was > 25000 nM and the GI50 [34] was 20.9 nM. For the same compound, the TGI [34] was > 25000 nM, the GI50 [35] was 33 nM and the TGI [35] was 110 nM. The GI50 [36] was 9.73 nM, the TGI [36] was 78.1 nM and the GI50 [37] was 22.6 nM. For the same compound, the TGI [37] was > 25000 nM, the GI50 [38] was 8.29 nM and the TGI [38] was 33.7 nM. For the same compound, the GI50 [39] was 11.4 nM, the TGI [39] was 52.9 nM and the GI50 [40] was 38.8 nM. It also gave a TGI [40] of 144 nM, a GI50 [41] of 6.3 nM and a TGI [41] of 14.7 nM. For the same compound, the GI50 [42] was 18.4 nM, the TGI [42] was > 25000 nM and the GI50 [43] was 13.3 nM. For the same compound, the TGI [43] was > 12900 nM, the GI50 [44] was 17 nM and the TGI [44] was 14800 nM. For the same compound, the GI50 [45] was 14.5 nM, the TGI [45] was 607 nM and the GI50 [46] was 7.67 nM. For the same compound, the TGI [46] was > 25000 nM, the GI50 [47] was 14 nM and the TGI [47] was > 25000 nM. It also gave a GI50 [48] of 21.7 nM, a TGI [48] of 126 nM and a GI50 [49] of 20.8 nM. For the same compound, the TGI [49] was 70.4 nM, the GI50 [50] was 12.1 nM and the TGI [50] was 98.4 nM. The GI50 [51] was 23.6 nM, the TGI [51] was 188 nM and the GI50 [52] was 82.5 nM. The TGI [52] was > 25000 nM, the GI50 [53] was 8.33 nM and the TGI [53] was 97.7 nM. For the same compound, the GI50 [54] was 7.95 nM, the GI50 [55] was 23.2 nM and the TGI [55] was 94.5 nM. It also gave a GI50 [56] of 10.1 nM, a TGI [56] of 102 nM and a GI50 [57] of 54.2 nM. The TGI [57] was 6600 nM.
